Earlier results in EP2738198A1, “Enzymatic synthesis of polyamide in aqueous mini-emulsion” (Henkel AG & Co. KGaA, priority 2012, dated 2014).

Conditions: alcohol CnH2n+1OH corresponding to the alkyl group of the di(alkyl) sebacate, data from Handbook of Chemistry and Physics 86th Edition

Partial Solubility of CnH2n+1OH in water | Compound
∞ | CCO [n 2]
7900 µg/mL | CCCCCCO [n 6]
300 µg/mL | CCCCCCCCO [n 8]
